Results taken from patent US10206937B2, “Boronic acid derivatives and therapeutic uses thereof” (Qpex Biopharma, Inc., priority 2014, dated 2019).

What was measured:
EA1019 (SHV-5, VIM-1) = assay: Carbapenem potentiation against clinical isolate (MIC); assay type: cell-based, Enterobacter aerogenes; details: EA1019
AB1144 (NDM-1) = assay: as above; assay type: cell-based, Acinetobacter baumannii; details: AB1144
[1] = system: EC1064 (NDM-1, CMY-6, CTX-M-15); assay: as above; assay type: cell-based, Escherichia coli
KP1059 (VIM-1, SHV-11) = assay: Biapenem potentiation against clinical isolate (MIC); assay type: cell-based; details: Klebsiella pneumoniae, biapenem alone
From the text: The results are present in Table 9.

[2] = system: KP1084 (KPC-3, SHV-11, TEM-1); assay: Carbapenem potentiation against clinical isolate (MIC); assay type: cell-based, Klebsiella pneumoniae
[3] = system: KP1081 (NDM-1, TEM-1, SHV-11, CMY-6, CTX-M-15); assay: as above; assay type: cell-based
[4] = system: KP1064 (KPC-2, SHV-11, TEM-1); assay: as above; assay type: cell-based, Klebsiella pneumoniae
KP1054 (VIM-1, SHV-11) = assay: as above; assay type: cell-based, Klebsiella pneumoniae
KP1014 (VIM-1) = assay: as above; assay type: cell-based, Klebsiella pneumoniae
[5] = system: KP1086 (TEM, SHV, CTX-M-15, OXA-48); assay: as above; assay type: cell-based, Klebsiella pneumoniae
[6] = system: KP1087 (KPC-2, CTX-M-15, SHV-11, TEM-1); assay: as above; assay type: cell-based
[7] = system: KP1074 (KPC-3, SHV-11, TEM); assay: as above; assay type: cell-based, Klebsiella pneumoniae
[8] = system: KP1004 (KPC-2, TEM-1, SHV-11); assay: as above; assay type: cell-based, Klebsiella pneumoniae
[9] = Klebsiella pneumoniae, biapenem alone

## C[C@@H](O)[C@H]1C(=O)N2C(C(=O)[O-])=C(SC3Cn4cnc[n+]4C3)[C@H](C)[C@H]12 (stereo partly shown) [Biapenem]
EA1019 (SHV-5, VIM-1); antibiotic alone
  Carbapenem MIC Alone: Z (MIC of greater than 10 μg/mL)
EA1019 (SHV-5, VIM-1); Klebsiella aerogenes, biapenem alone
  MIC: > 10 µg/mL
AB1144 (NDM-1); antibiotic alone
  Carbapenem MIC Alone: Y (MIC of 1 μg/mL to 10 μg/mL)
AB1144 (NDM-1); Acinetobacter baumannii, biapenem alone
  MIC: > 10 µg/mL
[1]; Escherichia coli, biapenem alone
  MIC: > 10 µg/mL
[1]; antibiotic alone
  Carbapenem MIC Alone: Z (MIC of greater than 10 μg/mL)
KP1059 (VIM-1, SHV-11)
  MIC: > 10 µg/mL
[2]; [9]
  MIC: > 10 µg/mL
[2]; antibiotic alone
  Carbapenem MIC Alone: Z (MIC of greater than 10 μg/mL)
[3]; [9]
  MIC: > 10 µg/mL
[3]; antibiotic alone
  Carbapenem MIC Alone: Z (MIC of greater than 10 μg/mL)
[4]; [9]
  MIC: > 10 µg/mL
[4]; antibiotic alone
  Carbapenem MIC Alone: Z (MIC of greater than 10 μg/mL)
KP1054 (VIM-1, SHV-11); [9]
  MIC: > 10 µg/mL
KP1054 (VIM-1, SHV-11); antibiotic alone
  Carbapenem MIC Alone: Z (MIC of greater than 10 μg/mL)
KP1014 (VIM-1); [9]
  MIC: > 10 µg/mL
KP1014 (VIM-1); antibiotic alone
  Carbapenem MIC Alone: Z (MIC of greater than 10 μg/mL)
[5]; [9]
  MIC: > 10 µg/mL
[5]; antibiotic alone
  Carbapenem MIC Alone: Z (MIC of greater than 10 μg/mL)
[6]; [9]
  MIC: > 10 µg/mL
[6]; antibiotic alone
  Carbapenem MIC Alone: Z (MIC of greater than 10 μg/mL)
[7]; [9]
  MIC: > 10 µg/mL
[7]; antibiotic alone
  Carbapenem MIC Alone: Z (MIC of greater than 10 μg/mL)
[8]; [9]
  MIC: > 10 µg/mL
[8]; antibiotic alone
  Carbapenem MIC Alone: Y (MIC of 1 μg/mL to 10 μg/mL)
